In publication PMC5944028, “Nonclinical and clinical pharmacological characterization of the potent and selective cathepsin K inhibitor MIV-711” (Journal of Translational Medicine, 2018):

Legend:
[1] = test system: > 70 different ion channels, receptors, transporters and CYP enzymes; assay: PanLabs broad panel; conditions: 10 µmol/L
Description: MIV-711 was analyzed against > 70 different ion channels, receptors, transporters and cytochrome P450 (CYP) enzymes at a concentration of 10 µmol/L at PanLabs (Taipei, Taiwan).

human cathepsin F = molecular target: T1, human cathepsin F (Homo sapiens, UniProt Q9UBX1); assay: Enzyme assay, human cathepsin F; assay type: biochemical
T1 construct: made in house
Description: (§1) Recombinant cathepsin K enzymes from all species were expressed in E. coli, purified and activated. Human cathepsin F and cathepsin S were expressed in Baculovirus, purified and activated. Purified human cathepsins B and H (Athens Research Technology), cathepsin L (Calbiochem), and cathepsin V (R & D Systems) were purchased.
(§2) H-D-Ala_Leu-Lys-AMC was used as the substrate in assays of cathepsin K from non-rodent species (human, dog, rabbit and guinea pig), and Z-Leu-Arg-AMC was used as the substrate in assays of cathepsin K from rodent species (mouse and rat). […]
(§3) Assays were carried out in white polystyrene 96-well plates in a final volume of 100 µL. […] Plates were read in a Fluoroskan Ascent (Thermo Labsystems, Helsinki, Finland) in kinetic mode, with excitation and emission filters of 390 and 460 nm, respectively. Rates were determined by linear regression of the fluorescence/time data in Excel. Rates were fitted by non-linear regression to either the competitive inhibition equation, with the substrate concentration fixed at the value in the assay and the KM fixed to the value previously determined, or the IC50 equation using GraphPad Prism (GraphPad, version 6, San Diego, USA) to obtain Ki or IC50 values, respectively.

[2] = Human plasma pharmacokinetics, single ascending dose study; assay type: in vivo, human healthy subjects; conditions: for AUC0–t / AUCinf / Cmax / Cmax/dose / t½: geometric mean (CV%); for tmax: median (min–max)
Description: Twenty-seven healthy male and female subjects (18 male and 9 female) of any ethnic origin (24 White, 1 Asian, 1 Black, 1 Black/Caribbean White), aged between 19 and 64 years, and with a body mass index (BMI) between 18.0 and 32.0 kg/m^2, were selected for this study. Inclusion criteria for enrollment followed the standard practice for first-in-man studies.
This was a randomized, double-blind, placebo-controlled, sequential, single-ascending dose study conducted at a single site with the objective of evaluating the safety, tolerability, pharmacokinetics (PK) and pharmacodynamics of MIV-711. Subjects were randomized into 3 groups using a computer-generated pseudo-random permutation procedure. Each group consisted of 9 subjects with at least 3 subjects of each gender per group and subjects participated in 1–2 treatment periods. There was a minimum of 10 days between dose escalations and a minimum of 20 days between dosing occasions for individual subjects. For each subsequent dosing occasion, the decision to escalate the dose to the next level was taken after a thorough review of the safety, tolerability and PK data. In each treatment period, 7 subjects received MIV-711 and 2 received placebo (comprising of 1 subject of each gender). Dosing occurred on the morning of Day 1 following an overnight fast and subjects were kept in the fasted state until approximately 4.5 h after dosing. MIV-711 was given as a combination of 10 or 40 mg hard gelatin capsules, while placebo was given in similar capsules of identical appearance.
Blood samples were collected at pre-dose, 0.5, 1, 1.5, 2, 3, 4, 6, 8, 12, 16, 24, 36 and 48 h post-dose and processed into plasma for the measurement of concentrations of MIV-711. The PK analysis was conducted using WinNonlin Enterprise Version 5.2 (Pharsight Corporation, Mountain View, CA, USA).
The quantification of MIV-711 in monkey plasma was performed by taking 10–50 µL of plasma and mixing with 3 volumes of acetonitrile (10 s, Vibrofix). The sample was centrifuged (10 min, 20,000×g, 7 °C) and 5 µL of the supernatant was injected onto the liquid chromatography with tandem mass spectrometric detection (LC–MS/MS) system. The lowest concentration of the standard curves and the lower limit of quantification (LLOQ) was 1 nmol/L of MIV-711. The human plasma samples were prepared by protein precipitation for sample extraction followed by LC–MS/MS. The lowest concentration of the standard curves and the LLOQ was 4 nmol/L of MIV-711 using 25 µL of plasma.

rat cathepsin K = molecular target: T2, rat cathepsin K (Rattus norvegicus, UniProt O35186); assay: Recombinant enzyme assay, rat cathepsin K; assay type: biochemical; conditions: footnote a: IC50
T2 construct: made in house; host or cells: E. coli
Description: as §1, §2, §3

T1 sequence (Q9UBX1 271-484): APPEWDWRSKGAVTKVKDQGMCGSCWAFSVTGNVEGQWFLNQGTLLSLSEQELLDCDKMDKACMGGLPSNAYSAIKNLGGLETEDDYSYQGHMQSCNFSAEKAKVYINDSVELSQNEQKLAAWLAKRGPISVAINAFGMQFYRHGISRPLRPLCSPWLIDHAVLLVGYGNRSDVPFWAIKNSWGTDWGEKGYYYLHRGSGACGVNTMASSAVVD
T2 sequence (O35186 115-329): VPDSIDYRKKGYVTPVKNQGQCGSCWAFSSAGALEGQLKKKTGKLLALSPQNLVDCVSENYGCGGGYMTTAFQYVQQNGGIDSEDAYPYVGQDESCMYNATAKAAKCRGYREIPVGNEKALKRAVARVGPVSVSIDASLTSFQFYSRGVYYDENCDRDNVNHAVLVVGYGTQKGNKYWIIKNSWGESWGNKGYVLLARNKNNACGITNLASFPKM

For `C#C[C@@H]1CN(C(=O)[C@H](CC(C)C)NC(=O)c2ccc(-c3nc(N4CCN(C)CC4)sc3F)cc2)[C@@H]2C(=O)CO[C@H]12` [MIV-711], the “Responses (more than 50% inhibition) in broad panel” value [1] was “No significant responses”, the Ki (human cathepsin F) was 2.8 µM and the “AUC0–t” value ([2]; 20 mg single oral dose) was 0.128 (36) µmol/L × h. The AUCinf ([2]; 20 mg single oral dose) was 0.158 (32) µmol/L × h, the Cmax ([2]; 20 mg single oral dose) was 33 nM and the Cmax/dose ([2]; 20 mg single oral dose) was 0.12 (26). For the same molecule, the t½ ([2]; 20 mg single oral dose) was 3.4 (13) h, the tmax ([2]; 20 mg single oral dose) was 1.0 (0.50–2.0) h and the “AUC0–24h” value ([2]; 100 mg) was 1.1 µM·h. The “AUC0–t” value ([2]; 100 mg single oral dose) was 1.13 (38) µmol/L × h, the AUCinf ([2]; 100 mg single oral dose) was 1.17 (37) µmol/L × h and the Cmax ([2]; 100 mg single oral dose) was 293 nM. The Cmax/dose ([2]; 100 mg single oral dose) was 0.21 (23), the t½ ([2]; 100 mg single oral dose) was 3.7 (15) h and the tmax ([2]; 100 mg single oral dose) was 1.0 (1.0–2.2) h. For the same molecule, the “Plasma levels at 24 h post-dose” value ([2]; 100 mg, mostly below LLOQ) was < 4 nM, the “AUC0–t” value ([2]; 200 mg single oral dose) was 2.45 (36) µmol/L × h and the AUCinf ([2]; 200 mg single oral dose) was 2.51 (35) µmol/L × h. The Cmax ([2]; 200 mg single oral dose) was 756 nM, the Cmax/dose ([2]; 200 mg single oral dose) was 0.27 (36) and the t½ ([2]; 200 mg single oral dose) was 5.0 (16) h. For the same molecule, the tmax ([2]; 200 mg single oral dose) was 1.0 (0.50–1.0) h, the “AUC0–t” value ([2]; 400 mg single oral dose) was 4.62 (33) µmol/L × h and the AUCinf ([2]; 400 mg single oral dose) was 4.75 (32) µmol/L × h. The Cmax ([2]; 400 mg single oral dose) was 1180 nM, the Cmax/dose ([2]; 400 mg single oral dose) was 0.23 (37) and the t½ ([2]; 400 mg single oral dose) was 6.5 (44) h. For the same molecule, the tmax ([2]; 400 mg single oral dose) was 1.0 (1.0–1.5) h, the “AUC0–t” value ([2]; 600 mg single oral dose) was 6.75 (30) µmol/L × h and the AUCinf ([2]; 600 mg single oral dose) was 6.89 (30) µmol/L × h. The Cmax ([2]; 600 mg single oral dose) was 1390 nM, the Cmax/dose ([2]; 600 mg single oral dose) was 0.17 (38) and the t½ ([2]; 600 mg single oral dose) was 8.3 (34) h. The tmax ([2]; 600 mg single oral dose) was 1.0 (1.0–3.0) h, the Excreted renally unchanged ([2]; data not shown) was “less than 1%” and the “mean terminal t1/2” value ([2]; over the 20–600 mg dose range) was 3.4 to 8.3 h. It also gave a median tmax ([2]; single oral doses) of 1 h and an IC50 (rat cathepsin K) of 0.24 µM.
